From ChEMBL document CHEMBL5532678, “Comprehensive Insights that Targeting PIM for Cancer Therapy: Prospects and Obstacles” (J Med Chem, 2024) come the findings set out here.

Experiment [1] deals with T1, Serine/threonine-protein kinase pim-1 (Homo sapiens, UniProt P11309). The experiment can be described thus: Inhibition of human PIM1 using KKRNRTLTK as substrate in presence of [gamma-33P]-ATP by hotspot kinase assay.
Experiment [2] concerns the target T2, Serine/threonine-protein kinase pim-2 (Homo sapiens, UniProt Q9P1W9). Put plainly: Inhibition of N-terminal GST-tagged full length human PIM2 (1 to 311 residues) expressed in baculovirus expression system using S6K2 peptide as substrate at 1 uM in presence of ATP by Mobility shift assay.
Experiment [3] has as its target T3, Prostaglandin G/H synthase 2 (Homo sapiens, UniProt P35354).
T3 sequence (P35354 whole entry): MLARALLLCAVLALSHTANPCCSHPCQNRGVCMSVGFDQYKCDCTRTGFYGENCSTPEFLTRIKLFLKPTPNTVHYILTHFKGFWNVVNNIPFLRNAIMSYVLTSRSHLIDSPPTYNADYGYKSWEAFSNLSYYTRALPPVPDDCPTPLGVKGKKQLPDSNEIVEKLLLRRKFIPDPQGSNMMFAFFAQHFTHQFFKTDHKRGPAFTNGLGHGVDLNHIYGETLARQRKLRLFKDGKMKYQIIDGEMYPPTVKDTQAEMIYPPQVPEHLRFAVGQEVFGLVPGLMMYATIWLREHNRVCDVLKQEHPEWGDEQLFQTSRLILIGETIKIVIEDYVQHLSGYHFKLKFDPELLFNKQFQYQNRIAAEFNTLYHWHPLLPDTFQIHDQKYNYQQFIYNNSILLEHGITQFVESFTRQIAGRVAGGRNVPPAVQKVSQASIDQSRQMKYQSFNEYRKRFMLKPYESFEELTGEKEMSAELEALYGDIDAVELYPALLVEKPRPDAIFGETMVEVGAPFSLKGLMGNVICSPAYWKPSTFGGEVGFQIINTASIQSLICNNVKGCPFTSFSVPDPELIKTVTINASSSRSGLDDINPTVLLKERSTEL
Put plainly: Inhibition of COX2 (unknown origin) fluorescence based analysis.

For experiment [4], the target named is Prostaglandin G/H synthase 1 (Homo sapiens, UniProt P23219). The experiment can be described thus: Inhibition of COX1 (unknown origin) fluorescence based analysis.
Experiment [5] has as its target T1, Serine/threonine-protein kinase pim-1. Put plainly: Inhibition of human recombinant PIM1.
Experiment [6] has as its target T4, Polyunsaturated fatty acid 5-lipoxygenase (Homo sapiens, UniProt P09917).
T4 sequence (P09917 whole entry): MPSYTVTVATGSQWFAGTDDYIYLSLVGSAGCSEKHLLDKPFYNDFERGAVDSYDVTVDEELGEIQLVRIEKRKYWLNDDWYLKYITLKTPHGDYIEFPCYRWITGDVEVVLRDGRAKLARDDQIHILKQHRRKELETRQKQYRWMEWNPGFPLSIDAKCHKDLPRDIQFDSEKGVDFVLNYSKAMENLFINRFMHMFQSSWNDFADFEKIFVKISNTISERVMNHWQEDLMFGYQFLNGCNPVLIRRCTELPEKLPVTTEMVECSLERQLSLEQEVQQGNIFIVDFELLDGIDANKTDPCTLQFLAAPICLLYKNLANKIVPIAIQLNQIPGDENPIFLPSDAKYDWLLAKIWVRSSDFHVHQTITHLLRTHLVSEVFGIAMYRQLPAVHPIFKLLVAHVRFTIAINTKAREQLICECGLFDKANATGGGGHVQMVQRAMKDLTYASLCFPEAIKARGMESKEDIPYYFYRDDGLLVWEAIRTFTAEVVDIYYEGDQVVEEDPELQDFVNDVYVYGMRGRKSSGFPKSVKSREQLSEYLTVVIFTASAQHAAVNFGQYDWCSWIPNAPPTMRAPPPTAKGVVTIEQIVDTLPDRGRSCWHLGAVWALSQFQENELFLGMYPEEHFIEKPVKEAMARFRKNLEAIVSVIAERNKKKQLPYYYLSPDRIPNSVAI
Put plainly: Inhibition of 5-LOX in human PMNL cells. The experiment is classed as cell-based.

In experiment [7] the target is T1, Serine/threonine-protein kinase pim-1. Put plainly: Inhibition of human PIM1 by discoverX kinome scan assay.
The test system of the next experiment is PC-3. The experiment can be described thus: Anticancer activity against human PC-3 cells assessed as inhibition of cell growth incubated for 24 hrs by MTT assay. The experiment is classed as functional, cell-based. The settings on record: PC-3, 24 h. In general terms: Tetrazolium dyes change colour on reduction, which living cells bring about.
In experiment [8] the test system is MCF7. The experiment can be described thus: Antiproliferative activity against human MCF7 cells assessed as reduction in cell growth incubated for 48 hrs by MTT assay. The experiment is classed as functional, cell-based. The settings on record: MCF7, 48 h.
Another experiment concerns HepG2. The experiment can be described thus: Antiproliferative activity against human HepG2 cells assessed as inhibition of cell growth incubated for 72 hrs by MTT assay. The note with it: HepG2, 72 h. The class given is functional, cell-based.
Experiment [9] concerns the target T1, Serine/threonine-protein kinase pim-1.
For experiment [10], the target named is T2, Serine/threonine-protein kinase pim-2. The experiment can be described thus: Inhibition of human full length-His6 tagged PIM2 (1 to 311 residues) expressed in Escherichia coli BL21 (DE3) assessed as inhibition constant using RSRHSSYPAGT as peptide substrate incubated for 10 mins in presence of [gamma-32P]ATP by radiometric scintillation assay.
Experiment [11] concerns the target T1, Serine/threonine-protein kinase pim-1. The experiment can be described thus: Inhibition of human full length-His6 tagged PIM1 (1 to 312 residues) expressed in Escherichia coli BL21 (DE3) using RSRHSSYPAGT as peptide substrate incubated for 10 mins in presence of [gamma-32P]ATP by radiometric scintillation assay.
Experiment [12] deals with T5, Serine/threonine-protein kinase pim-3 (Homo sapiens, UniProt Q86V86). The experiment can be described thus: Inhibition of N-terminal GST-tagged full length human PIM3 (1 to 326 residues) expressed in baculovirus expression system using S6K2 peptide as substrate at 1 uM in presence of ATP by Mobility shift assay.
Experiment [13] concerns the target T5, Serine/threonine-protein kinase pim-3.
The target of experiment [14] is T2, Serine/threonine-protein kinase pim-2.
In experiment [15] the target is Dual specificity protein kinase CLK1 (Homo sapiens, UniProt P49759). Put plainly: Inhibition of CLK1 (unknown origin) using GRSRSRSRSRSRSRS as substrate incubated for 15 mins in presence of ATP by gamma32P-ATP based analysis.
In experiment [16] the target is T2, Serine/threonine-protein kinase pim-2. The experiment can be described thus: Inhibition of PIM2 (unknown origin) by FRET based Z-LYTE kinase assay.
Experiment [17] has as its target T5, Serine/threonine-protein kinase pim-3. The experiment can be described thus: Inhibition of PIM3 (unknown origin) by FRET based Z-LYTE kinase assay.
Experiment [18] has as its system MCF7. The experiment can be described thus: Cytotoxicity against human MCF7 cells assessed as reduction in cell growth incubated for 72 hrs by MTT assay. The experiment is classed as functional, cell-based. The note with it: MCF7, 72 h.
The next experiment deals with HCT-116. Put plainly: Cytotoxicity against human HCT-116 cells assessed as reduction in cell viability incubated for 72 hrs by MTT assay. The experiment is classed as functional, cell-based. The settings on record: HCT-116, 72 h.
The subject of experiment [19] is MCF7. The experiment can be described thus: Cytotoxicity against human MCF7 cells assessed as reduction in cell viability by MTT assay. The experiment is classed as functional, cell-based.

Each structure is given as a SMILES string.

Broadly, the IC50 is the point on the concentration scale where inhibition reaches its midpoint. Turning to `CCc1ccc(NC(=O)c2sc3nc(-c4ccc(OC)c(OC)c4)cc(-c4ccc(O)c(O)c4)c3c2N)cc1`, the half-inhibitory concentration (IC50) in [1] came to 9390 nM.

Turning to `Cc1ccc(C(C)C)c(O)c1/C=N/N=C1NC(=O)C(CC(=O)O)S1` (stereo not given), the IC50 in [2] amounted to 1380 nM; in experiment [3], 91 nM; in experiment [4], 9400 nM; in experiment [5], 2960 nM; in experiment [6], 3540 nM.

`N#Cc1c(-c2ccco2)cc(-c2ccc(N3C(=O)c4ccccc4C3=O)cc2)nc1N`: the IC50 in experiment [7] was found to be 630 nM; in the experiment on PC-3, 33400 nM; with MCF7 [8] it was 19700 nM; in the experiment on HepG2, 31100 nM.

`NCCN1CCN(CCN2c3ccncc3Oc3ccc(Br)cc32)CC1` had an IC50 in experiment [9] of 0.9 nM.

Regarding `COc1ccc(/C=C/C(=O)/C=C2/C(=O)Nc3cc(Br)ccc32)cc1`, the concentration for half-maximal inhibition (IC50) in [10] is 410 nM; in experiment [11], 370 nM; in experiment [12] it was 300 nM.

Turning to `N#Cc1c(-c2ccccc2O)cc(-c2ccc(N3C(=O)c4ccccc4C3=O)cc2)nc1N`, the IC50 in [7] came out at 9760 nM; in the experiment with PC-3, 27600 nM; in the experiment with MCF7 [8], 13400 nM; in the experiment with HepG2, 14600 nM.

For `Fc1cncc(-c2ccc3[nH]c4ncnc(N[C@H]5CC[C@H](N6CCOCC6)CC5)c4c3c2)c1`, the IC50 in experiment [1] was 4.6 nM.

Take `C[C@@H]1CCCN(c2c(/C=C3\SC(=O)NC3=O)cccc2-c2ccccc2)C1`: the IC50 is 3 nM in experiment [9], 3 nM in experiment [13] and 5 nM in experiment [14].

On to `NC(=O)c1c(O)cc(O)c2c1oc1cc(O)ccc12`, for which, in experiment [15], the 50% inhibitory concentration (IC50) stood at 26 nM.

Consider `Cc1ccc(-c2cncc(NCCN(C)C)n2)cc1CC1SC(=O)NC1=O` (stereo not given), for which the IC50 in experiment [16] and in [17] was 6 nM in each case.

As for `N#Cc1c(-c2ccccc2)cc(-c2ccccc2)nc1OCCCC(=O)NO`, in [1], the half-inhibitory concentration (IC50) worked out at 344 nM.

`COc1ccc(/C=C/C(=O)CC2(O)C(=O)Nc3cc(Br)ccc32)cc1` (stereo not given): the IC50 was found to be 2460 nM in experiment [10], 1620 nM in [11] and 1740 nM in experiment [12].

For `Cc1nc2sc3c(c2c(C)c1Br)NC(c1ccccc1Cl)NC3=O` (stereo not given), the IC50 in the experiment with MCF7 [18] was determined as 23800 nM; in the experiment on HCT-116, 18600 nM.

On to `Cc1nc2sc(C(=O)Nc3ccc(F)c(Cl)c3)c(N)c2c(C)c1Br`, for which the values for the IC50 (in experiment [7]; with MCF7 [19]) were 35700 nM and 75900 nM, respectively.

With `N#Cc1c(-c2ccccc2)cc(-c2ccccc2)nc1OCCCCC(=O)NO`, in experiment [1], the half-inhibitory concentration (IC50) was found to be 365 nM.

Turning to `CC(C)n1c(C2CCNCC2)nc2c([N+](=O)[O-])c(Br)c(Br)cc21` [DAPOLSERTIB], the IC50 in experiment [9] amounted to 2 nM; in [13], 3 nM; in [14], 2 nM.

As to `CC(C)(O)[C@H]1CC[C@H](Nc2ccc3ncc(-c4cccc(C(F)(F)F)c4)n3n2)CC1` [NUVISERTIB], the IC50 in [9] came to 5 nM; in experiment [13] it was 42 nM; in [14], 239 nM.
